Here are results for 22 molecules from patent US20240317748A1, “CARBONYL SUBSTITUTED DIAZASPIRO COMPOUNDS AND ITS USE” (BIONOVA PHARMACEUTICALS (SHANGHAI) LIMITED, priority 2021, published 2024).

The subject of one experiment is MV-4-11 cells. Nature of the experiment: Cell proliferation assay (CellTiter-Glo), MV-4-11. The experiment is classed as cell-based, human. The settings on record: Homo sapiens, MV4-11, 96 h; MV-4-11 (MLL-AF4), 4 days incubation; read-out: Cell antiproliferation assay MV-4-11 IC50. As for the experimental part:
(§1) The antiproliferative activity of test compounds was assessed in human leukemia cell lines. The cell line MV4-11, MOLM13 and OCI-AML3, which expresses the MLL fusion protein MLL-AF4, MLL-AF9 and carry the NPM1c gene mutation, respectively, were tested. HL-60 was used as a control cell line containing two MLL wildtype alleles in order to exclude compounds that display general cytotoxic effect. MV4-11 cells were cultured in IMDM supplemented with 10% FBS, MOLM13 and OCI-AML3 cells were cultured in RPMI1640 supplemented with 20% FBS, and HL-60 cells were cultured in IMDM supplemented with 20% FBS. Corresponding cells (MV4-11, MOLM13, OCI-AML3 or HL-60 cell line) were seeded in 100 uL medium per well in 96-well plate (white wall with clear bottom, tissue culture treated, Corning, Cat. No. CLS3903; Lot.No. 30419025). Plates were placed in the CO2 incubator overnight. Compounds solution (2 mM starting, 4-fold serial dilution) were prepared and added to the wells containing 100 μL of the culture medium with HPD300 according to the plate map and centrifuge at 1000 rpm for 1 minutes (200-fold dilution totally). MV4-11, MOLM13, OCI-AML3 and HL-60 cells were incubated with the compounds for 4, 12, 5 and 4 days, respectively, under 5% CO2 at 37° C., respectively. 100 μL of CellTiter-Glo reagent (Promega, Cat. No. G7573, Lot. No. 0000416710) was added to the assay plate by Multidrop Combi instrument, contents were mixed for 10 minutes on an orbital shaker to induce cell lysis. After incubation at room temperature for 10 mins, clear bottom with white back seal was pasted and luminescence with Envision was read.

The target in another experiment is T1, Menin-MLL1 (Homo sapiens, UniProt O00255).
T1 construct: Menin (2-610) isform2; purchased ChemPartner 2020111101
T1 sequence (O00255 2-610): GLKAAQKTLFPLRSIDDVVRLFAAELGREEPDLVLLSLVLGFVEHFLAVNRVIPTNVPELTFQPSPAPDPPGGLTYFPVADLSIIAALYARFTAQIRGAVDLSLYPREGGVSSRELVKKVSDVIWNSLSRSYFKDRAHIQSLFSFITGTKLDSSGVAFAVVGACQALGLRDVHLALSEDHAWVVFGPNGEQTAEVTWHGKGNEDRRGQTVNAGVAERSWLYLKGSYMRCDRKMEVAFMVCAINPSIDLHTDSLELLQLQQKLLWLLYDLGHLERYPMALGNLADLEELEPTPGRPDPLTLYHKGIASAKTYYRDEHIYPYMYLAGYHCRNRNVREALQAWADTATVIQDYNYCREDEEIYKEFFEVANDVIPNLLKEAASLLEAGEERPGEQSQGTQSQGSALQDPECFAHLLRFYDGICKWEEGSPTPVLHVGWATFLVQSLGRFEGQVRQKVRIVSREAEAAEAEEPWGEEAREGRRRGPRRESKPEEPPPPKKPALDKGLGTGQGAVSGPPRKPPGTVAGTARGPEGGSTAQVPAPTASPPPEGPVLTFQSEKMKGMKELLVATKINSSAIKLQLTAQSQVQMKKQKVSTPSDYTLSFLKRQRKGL
Nature of the experiment: Menin-MLL1 inhibition assay (fluorescence polarization, Menin protein + FAM-MLL peptide). The experiment is classed as binding. The settings on record: Menin (2-610) isoform 2, FAM-labelled MLL peptide, mP readout; read-out: Biochemical assay Menin-MLL1 IC50. As to the method: 1× assay bu9ffer (Tris 7.5 50 mM, NaCl 50 mM, DTT 1 mM, Tween-20 0.01%) was prepared and test compounds solution (10 mM in DMSO, Sigma, Cat. No. 34869) were transferred to assay plate (384-well plate, Perkin Elmer, Cat. No. 6007279) by Echo. The final fraction of DMSO is 1%. 20 nM of Menin protein (Menin (2-610) isform2, ChemPartner, Cat. No. 2020111101) in 1× assay buffer was added to prepare 2× enzyme solution. Then 10 nM of MLL-peptide (Ac-SRWRFPARPGTGRR-Ahx-Ahx-K(FAM)-NH2, GL Biochem (Shanghai)), Cat. No. 833831/202009220104) in 1× assay buffer was added to prepare 2× substrate solution. 10 μL of 2× enzyme solution was transferred to assay plate or 10 μL of 1× assay buffer for low control group. 10 μL of 2× substrate solution was added to each well to start reaction. mP data on Envision (Ex480/Em535(s), Em535(p)) was collected.
Compound potencies were determined by first calculating % inhibition at each compound concentration according to equation 1:
Inhibition %=(Max−Signal)/(Max−Min)*100 (Equation 1)
Y=Bottom+(Top-Bottom)/(1+(IC50/X)[…]), where Y is % inhibition and X is compound concentration (Equation 2)

The next experiment relates to HL-60 cells. Nature of the experiment: Cell proliferation assay (CellTiter-Glo), HL-60 control line. The experiment is classed as cell-based, human. The settings on record: Homo sapiens, 96 h, 4 days incubation; for IC50: HL-60 control line (MLL wildtype), read-out: Cell antiproliferation assay HL-60 IC50; for inhibition at 10 µM: HL-60 control line, read-out: HL-60 (Pct of inhibition at 10 μM). As to the method: as §1

The test system of another experiment is OCI-AML3 cells. Nature of the experiment: Cell proliferation assay (CellTiter-Glo), OCI-AML3. The settings on record: Homo sapiens, OCI-AML-3, 120 h; OCI-AML3 (NPM1c mutation), 5 days incubation; read-out: Cell antiproliferation assay OCI-AML3 IC50. The experiment is classed as cell-based, human. As to the method:
as §1

The subject of a further experiment is MOLM13 cells. Nature of the experiment: Cell proliferation assay (CellTiter-Glo), MOLM13. The experiment is classed as cell-based, human. The settings on record: Homo sapiens, MOLM-13, 288 h; MOLM13 (MLL-AF9), 12 days incubation; read-out: Cell antiproliferation assay MOLM13 IC50. As for the experimental part:
as §1

Bounds are passed on as bounds.

With `CCN(C(=O)c1cc(F)ccc1Oc1cncnc1N1CC2(CCN(C(=O)[C@H]3NC[C@@H]4C[C@@H]43)CC2)C1)C(C)C` [Example 34], the IC50 in the experiment with MV-4-11 cells was 18 nM; on Menin-MLL1, 4.1 nM; in the experiment on HL-60 cells, greater than 10 µM. Also, the inhibition at 10 µM in the experiment on HL-60 cells is -12.2%.
`CCN(C(=O)c1cc(F)ccc1Oc1cncnc1N1CC2(CCN(C(=O)[C@H]3NCC[C@@H]3C)CC2)C1)C(C)C` [Example 41]: the IC50 in the experiment on OCI-AML3 cells was 31.4 nM; in the experiment on MV-4-11 cells, 7.7 nM; at Menin-MLL1 it was 3.6 nM; in the experiment on HL-60 cells it was greater than 10 µM; with MOLM13 cells it was 23.7 nM. In the experiment with HL-60 cells, the inhibition at 10 µM was -22.2%.
In the case of `CCN(C(=O)c1cc(F)ccc1Oc1cncnc1N1CC2(CCN(C(=O)[C@@H]3C[C@@H](C)CN3)CC2)C1)C(C)C` [Example 47], the IC50 is 15.9 nM with MV-4-11 cells, 3.7 nM at Menin-MLL1 and greater than 10 µM with HL-60 cells. For the same molecule, in the experiment with HL-60 cells, the inhibition at 10 µM is -10.6%.
For `CC(C)N(CCO)C(=O)c1cc(F)ccc1Oc1cncnc1N1CC2(CCN(C(=O)[C@@H]3C[C@@H](F)CN3)CC2)C1` [Example 49] the same measures were 57.3 nM, 3.6 nM, greater than 10 µM and -8.4%.
On to `CC(C)N(C(=O)c1cc(F)ccc1Oc1nncnc1N1CC2(CCN(C(=O)[C@@H]3C[C@@H](F)CN3)CC2)C1)C(C)C` [Example 56], for which the IC50 is 132 nM with OCI-AML3 cells; 16.8 nM with MV-4-11 cells; 3.7 nM on Menin-MLL1; greater than 10 µM with HL-60 cells; 68.3 nM in the experiment on MOLM13 cells. The inhibition at 10 µM in the experiment with HL-60 cells is -12.2%.
For the molecule `CC(C)n1ncc(Cl)c1-c1cc(F)ccc1Oc1cncnc1N1CC2(CCN(C(=O)[C@@H]3C[C@@H](F)CN3)CC2)C1` [Example 58], the values for the IC50 in the experiment on MV-4-11 cells, on Menin-MLL1 and with HL-60 cells were 27.1 nM, 3.5 nM and greater than 10 µM, respectively. Besides, the inhibition at 10 µM in the experiment with HL-60 cells was -4.5%.
As for `CC(C)N(C(=O)c1cc(F)ccc1Oc1nncnc1N1CC2(CCN(C(=O)[C@H]3NCC[C@@H]3C)CC2)C1)C(C)C` [Example 64], the IC50 with MV-4-11 cells is 9.6 nM; at Menin-MLL1, 1.9 nM; in the experiment with HL-60 cells, greater than 10 µM; with MOLM13 cells, 20.2 nM. Also, the inhibition at 10 µM in the experiment with HL-60 cells came out at 11.2%.
As to `N#Cc1ccc(-c2cc(F)ccc2Oc2nncnc2N2CC3(CCN(C(=O)[C@@H]4C[C@@H](F)CN4)CC3)C2)c(C2CC2)c1` [Example 67], the IC50 in the experiment with MV-4-11 cells was 20.5 nM; on Menin-MLL1 it was 2.8 nM; with HL-60 cells it was greater than 10 µM; in the experiment with MOLM13 cells it was 61.1 nM. For the same molecule, the inhibition at 10 µM with HL-60 cells came to 23.8%.
As to `CC[C@H]1CCN[C@@H]1C(=O)N1CCC2(CC1)CN(c1ncnnc1Oc1ccc(F)cc1C(=O)N(CC)C(C)C)C2` [Example 70], the IC50 with OCI-AML3 cells is 52.7 nM; in the experiment with MV-4-11 cells, 9.5 nM; at Menin-MLL1, 4.6 nM; in the experiment with HL-60 cells, greater than 10 µM; in the experiment with MOLM13 cells it was 49.5 nM. In the experiment on HL-60 cells, the inhibition at 10 µM is 1%.
Consider `N#Cc1ccc(-c2cc(F)ccc2Oc2nncnc2N2CC3(CCN(C(=O)[C@H]4NC[C@@H]5C[C@@H]54)CC3)C2)c(C2CC2)c1` [Example 78], for which the IC50 is 28.1 nM with OCI-AML3 cells; 6.5 nM with MV-4-11 cells; 2.9 nM on Menin-MLL1; greater than 10 µM with HL-60 cells; 14.2 nM in the experiment on MOLM13 cells. In addition, the inhibition at 10 µM with HL-60 cells stood at 40%.
Consider `O=C([C@H]1NC[C@@H]2C[C@@H]21)N1CCC2(CC1)CN(c1ncnnc1Oc1ccc(F)cc1-c1cncnc1C1CC1)C2` [Example 80], for which the IC50 in the experiment with MV-4-11 cells is 39 nM; at Menin-MLL1 it was 4.3 nM; in the experiment with HL-60 cells, greater than 10 µM. Further, in the experiment with HL-60 cells, the inhibition at 10 µM was found to be 0%.
Regarding `CCN(C(=O)c1cc(F)ccc1Oc1nncnc1N1CC2(CCN(C(=O)[C@H]3NCc4ccccc43)CC2)C1)C(C)C` [Example 85], the IC50 was 76.7 nM in the experiment on MV-4-11 cells, 5.5 nM on Menin-MLL1 and greater than 10 µM with HL-60 cells. In addition, in the experiment with HL-60 cells, the inhibition at 10 µM is -2.8%.
On to `N#Cc1ccc(-c2cc(F)ccc2Oc2nncnc2N2CC3(CCN(C(=O)[C@H]4NC[C@@H]5CCC[C@@H]54)CC3)C2)c(C2CC2)n1` [Example 90], for which the IC50 in the experiment on MV-4-11 cells came out at 2.6 nM; on Menin-MLL1, 2.8 nM; with MOLM13 cells it was 6.1 nM.
On to `CCN(C(=O)c1cc(F)ccc1Oc1nncnc1N1CC2(CCN(C(=O)[C@H]3NCC[C@@H]3C3CC3)CC2)C1)C(C)C` [Example 100a], for which the IC50 in the experiment with MV-4-11 cells is 6.9 nM; at Menin-MLL1, 2.7 nM.
The matching figures for `CCN(C(=O)c1cc(F)ccc1Oc1nncnc1N1CC2(CCN(C(=O)[C@@H]3NCC[C@H]3C3CC3)CC2)C1)C(C)C` [Example 100b]: 284 nM and 11.7 nM.
The matching figures for `CO[C@H]1CCN[C@@H]1C(=O)N1CCC2(CC1)CN(c1ncnnc1Oc1ccc(F)cc1-c1ccc(C#N)nc1C1CC1)C2` [Example 101]: 6.8 nM and 6 nM.
As for `[2H]C([2H])(C)N(C(=O)c1cc(F)ccc1Oc1nncnc1N1CC2(CCN(C(=O)[C@H]3NC[C@@H]4CCC[C@@H]43)CC2)C1)C(C)C` [Example 102], the IC50 in the experiment on MV-4-11 cells turned out to be 4.6 nM; at Menin-MLL1, 5.4 nM.
For `O=C([C@H]1NC[C@@H]2CCC[C@@H]21)N1CCC2(CC1)CN(c1ncnnc1Oc1ccc(F)cc1-c1cccnc1C1CC1)C2` [Example 103] the same measures were 1.5 nM and 4.4 nM.
The matching figures for `CC(C)N(CCO)C(=O)c1cc(F)ccc1Oc1nncnc1N1CC2(CCN(C(=O)[C@H]3NC[C@@H]4CCC[C@@H]43)CC2)C1` [Example 104]: 26.7 nM and 4.5 nM.
The matching figures for `CC(C)N(CC(F)F)C(=O)c1cc(F)ccc1Oc1nncnc1N1CC2(CCN(C(=O)[C@H]3NC[C@@H]4CCC[C@@H]43)CC2)C1` [Example 105]: 17.1 nM and 4 nM.
Regarding `O=C([C@H]1NC[C@@H]2CCC[C@@H]21)N1CCC2(CC1)CN(c1ncnnc1Oc1ccc(F)cc1-c1ccc(=O)[nH]c1C1CC1)C2` [Example 106], the IC50 in the experiment with MV-4-11 cells came to 9.4 nM; on Menin-MLL1 it was 2 nM.
As to `COc1ccc(-c2cc(F)ccc2Oc2nncnc2N2CC3(CCN(C(=O)[C@H]4NC[C@@H]5CCC[C@@H]54)CC3)C2)c(C2CC2)n1` [Example 107], the IC50 in the experiment with MV-4-11 cells and at Menin-MLL1 was 2.4 nM each time.
